Measured values from the NIST ThermoML archive (doi:10.1021/je600568w).

Assays:
[1] = 101 kPa, Liquid; for viscosity: Capillary tube (Ostwald / Ubbelohde) method
[2] = xn = mol fraction of the nth substance listed; conditions: 101 kPa, Liquid; for viscosity: Capillary tube (Ostwald / Ubbelohde) method

CCOC(=O)C(C)O (racemic) [DL-ethyl lactate]
[1]
Conditions	mass density [kg/m3]	viscosity [mPa·s]
298.15 K	1029.1	2.398
308.15 K	1018.7	1.863
318.15 K	1007.5	1.494

C=C(C)C(=O)OCCO [2-hydroxyethyl 2-methyl-2-propenoate]
[1]
Conditions	mass density [kg/m3]	viscosity [mPa·s]
298.15 K	1067.1	5.784
308.15 K	1057.7	4.194
318.15 K	1048.6	3.181

C=C(C)C(=O)OCCO [2-hydroxyethyl 2-methyl-2-propenoate] + CCOC(=O)C(C)O
[2]
Conditions	mass density, 298.15 K [kg/m3]	mass density, 308.15 K [kg/m3]	mass density, 318.15 K [kg/m3]	viscosity, 298.15 K [mPa·s]	viscosity, 308.15 K [mPa·s]	viscosity, 318.15 K [mPa·s]
x2 = 0	1067.1	1057.7	1048.6	5.784	4.194	3.181
x2 = 0.1	1063.9	1054.7	1045.6	5.23	3.833	2.938
x2 = 0.2	1060.6	1051.4	1042.2	4.75	3.513	2.71
x2 = 0.3	1057.1	1047.9	1038.5	4.36	3.215	2.493
x2 = 0.4	1053.5	1044.3	1034.6	3.989	2.975	2.311
x2 = 0.5	1049.8	1040.4	1030.6	3.663	2.742	2.141
x2 = 0.6	1045.9	1036.4	1026.4	3.343	2.526	1.985
x2 = 0.7	1041.8	1032.2	1022	3.041	2.323	1.834
x2 = 0.8	1037.7	1027.9	1017.5	2.767	2.127	1.689
x2 = 0.9	1033.4	1023.4	1012.8	2.524	1.949	1.556

C=C(C)C(=O)O [2-methyl-2-propenoic acid]
[1]
Conditions	mass density [kg/m3]	viscosity [mPa·s]
298.15 K	1009.5	1.267
308.15 K	999.4	1.078
318.15 K	989.2	0.945

C=C(C)C(=O)O [2-methyl-2-propenoic acid] + CCOC(=O)C(C)O
[2]
Conditions	mass density, 298.15 K [kg/m3]	mass density, 308.15 K [kg/m3]	mass density, 318.15 K [kg/m3]	viscosity, 298.15 K [mPa·s]	viscosity, 308.15 K [mPa·s]	viscosity, 318.15 K [mPa·s]
x2 = 0	1009.5	999.4	989.2	1.267	1.078	0.945
x2 = 0.1	1012.1	1002	991.7	1.422	1.19	1.02
x2 = 0.2	1014.6	1004.6	994.5	1.66	1.368	1.154
x2 = 0.3	1017	1007.4	997.3	1.933	1.567	1.306
x2 = 0.3999	1019.8	1010.2	999.9	2.181	1.742	1.43
x2 = 0.5	1022.5	1012.7	1002.2	2.378	1.87	1.52
x2 = 0.6	1024.7	1014.8	1004.2	2.465	1.929	1.551
x2 = 0.6999	1026.5	1016.5	1005.8	2.532	1.967	1.579
x2 = 0.8	1027.9	1017.8	1007.2	2.539	1.962	1.567
x2 = 0.9001	1028.7	1018.6	1008.2	2.471	1.907	1.526

CCOC(=O)C(C)O (stereo not drawn) [DL-ethyl lactate] + C=C(C)C(=O)O
[2], x1 = 1
Conditions	mass density [kg/m3]	viscosity [mPa·s]
298.15 K	1029.1	2.398
308.15 K	1018.7	1.863
318.15 K	1007.5	1.494

CCOC(=O)C(C)O (stereo not drawn) [DL-ethyl lactate] + C=C(C)C(=O)OCCO
[2], x1 = 1
Conditions	mass density [kg/m3]	viscosity [mPa·s]
298.15 K	1029.1	2.398
308.15 K	1018.7	1.863
318.15 K	1007.5	1.494

CCOC(=O)C(C)O (stereo not drawn) [DL-ethyl lactate] + C=C(C)C(=O)OCc1ccccc1
[2], x1 = 1
Conditions	mass density [kg/m3]	viscosity [mPa·s]
298.15 K	1029.1	2.398
308.15 K	1018.7	1.863
318.15 K	1007.5	1.494

C=C(C)C(=O)OCc1ccccc1 [benzyl methacrylate]
[1]
Conditions	mass density [kg/m3]	viscosity [mPa·s]
298.15 K	1034.7	2.302
308.15 K	1025.8	1.885
318.15 K	1017	1.58

C=C(C)C(=O)OCc1ccccc1 [benzyl methacrylate] + CCOC(=O)C(C)O
[2]
Conditions	mass density, 298.15 K [kg/m3]	mass density, 308.15 K [kg/m3]	mass density, 318.15 K [kg/m3]	viscosity, 298.15 K [mPa·s]	viscosity, 308.15 K [mPa·s]	viscosity, 318.15 K [mPa·s]
x2 = 0	1034.7	1025.8	1017	2.302	1.885	1.58
x2 = 0.1	1033.7	1024.3	1015.1	2.219	1.832	1.53
x2 = 0.1999	1032.7	1023.3	1013.9	2.166	1.8	1.493
x2 = 0.3	1032.1	1022.6	1012.9	2.153	1.77	1.458
x2 = 0.4	1031.6	1021.9	1012.1	2.149	1.753	1.437
x2 = 0.5	1031.1	1021.2	1011.2	2.161	1.749	1.426
x2 = 0.6	1030.7	1020.6	1010.4	2.179	1.753	1.426
x2 = 0.7	1030.2	1020	1009.5	2.209	1.761	1.431
x2 = 0.7999	1029.8	1019.4	1008.7	2.25	1.782	1.447
x2 = 0.9	1029.4	1018.9	1008	2.303	1.807	1.464
